“Also recorded” adds a separate entry of the source.
Columns and labels:
[1] = target: HISTAMINE H3 RECEPTOR (Homo sapiens, UniProt Q9Y5N1); experiment: Safety off-target panel, binding; details: single point
Source text: (§1) Table S9-S12 list all targets, their species, inhibition (%) and assay type for the experiments conducted in the
(§2) off-targets. […] The numbers for mean
(§3) inhibition (%) represent single point measurements.
(§4) off-targets. […] The numbers for
(§5) mean inhibition (%) represent single point measurements.

[2] = target: 5HT2B (Homo sapiens, UniProt P41595); experiment: Safety off-target panel, binding; details: single point
Source text: as §1, §2, §3, §4, §5

[3] = target: µ OPIOID RECEPTOR (Homo sapiens, UniProt P35372); experiment: Safety off-target panel, binding; details: single point
Sequence of µ OPIOID RECEPTOR (P35372 whole entry): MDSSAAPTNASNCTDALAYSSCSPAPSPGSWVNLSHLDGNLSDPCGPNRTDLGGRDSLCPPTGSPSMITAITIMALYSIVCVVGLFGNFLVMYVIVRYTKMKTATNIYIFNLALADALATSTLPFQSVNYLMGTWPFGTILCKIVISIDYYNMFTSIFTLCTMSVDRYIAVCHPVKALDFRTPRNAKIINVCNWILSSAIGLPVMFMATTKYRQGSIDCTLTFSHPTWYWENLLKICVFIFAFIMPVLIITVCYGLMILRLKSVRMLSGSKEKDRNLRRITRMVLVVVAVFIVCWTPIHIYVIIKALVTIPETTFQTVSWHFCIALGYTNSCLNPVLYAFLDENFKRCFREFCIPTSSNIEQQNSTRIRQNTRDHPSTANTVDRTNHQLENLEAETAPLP
Source text: as §1, §2, §3, §4, §5

[4] = target: MUSCARINIC RECEPTOR M2 (Homo sapiens, UniProt P08172); experiment: Safety off-target panel, binding; details: single point
Sequence of MUSCARINIC RECEPTOR M2 (P08172 whole entry): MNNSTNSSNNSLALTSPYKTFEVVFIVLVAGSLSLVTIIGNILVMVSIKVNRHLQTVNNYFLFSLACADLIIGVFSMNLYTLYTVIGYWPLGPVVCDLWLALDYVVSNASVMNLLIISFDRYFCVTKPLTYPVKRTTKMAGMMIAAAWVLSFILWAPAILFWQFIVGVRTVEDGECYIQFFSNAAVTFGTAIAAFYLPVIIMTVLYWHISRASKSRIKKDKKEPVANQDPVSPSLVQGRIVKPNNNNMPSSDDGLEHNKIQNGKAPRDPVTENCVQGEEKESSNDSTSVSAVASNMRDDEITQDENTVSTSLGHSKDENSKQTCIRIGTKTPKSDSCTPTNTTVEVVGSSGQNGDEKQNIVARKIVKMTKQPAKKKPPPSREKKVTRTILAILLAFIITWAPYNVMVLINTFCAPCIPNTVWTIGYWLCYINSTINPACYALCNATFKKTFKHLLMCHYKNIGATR
Source text: as §1, §2, §3, §4, §5

[5] = target: HISTAMINE H2 RECEPTOR (Homo sapiens, UniProt P25021); experiment: Safety off-target panel, binding; details: single point
Source text: as §1, §2, §3, §4, §5

[6] = target: κ OPIOID RECEPTOR (Homo sapiens, UniProt P41145); experiment: Safety off-target panel, binding; details: single point
Sequence of κ OPIOID RECEPTOR (P41145 whole entry): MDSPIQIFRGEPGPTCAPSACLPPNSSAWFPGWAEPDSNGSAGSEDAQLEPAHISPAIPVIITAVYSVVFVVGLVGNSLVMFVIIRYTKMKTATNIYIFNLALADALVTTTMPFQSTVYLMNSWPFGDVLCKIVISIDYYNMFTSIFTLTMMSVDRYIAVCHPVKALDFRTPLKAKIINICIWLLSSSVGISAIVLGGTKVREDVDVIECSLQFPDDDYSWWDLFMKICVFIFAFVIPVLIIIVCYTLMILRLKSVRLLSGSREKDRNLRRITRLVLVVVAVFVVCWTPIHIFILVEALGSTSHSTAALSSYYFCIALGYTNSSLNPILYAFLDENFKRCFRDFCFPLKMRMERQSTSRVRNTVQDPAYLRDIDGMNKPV
Source text: as §1, §2, §3, §4, §5

[7] = target: SEROTONIN TRANSPORTER (Homo sapiens, UniProt P31645); experiment: Safety off-target panel, binding; details: single point
Source text: as §1, §2, §3, §4, §5

[8] = target: CHOLECYSTOKININ 1 RECEPTOR (Homo sapiens, UniProt P32238); experiment: Safety off-target panel, binding; details: single point
Source text: as §1, §2, §3, §4, §5

[9] = target: CANNABINOID RECEPTOR CB1 (Homo sapiens, UniProt P21554); experiment: Safety off-target panel, binding; details: single point
Source text: as §1, §2, §3, §4, §5

[10] = target: GLYCINE RECEPTOR, STRYCHNINE INSENSITIVE (Rattus norvegicus, UniProt P35439); experiment: Safety off-target panel, binding; details: read-out: Mean inhibition (%)
Source text: as §1, §2, §3, §4, §5

[11] = target: NOREPINEPHRINE TRANSPORTER (Homo sapiens, UniProt P23975); experiment: Safety off-target panel, binding; details: single point
Sequence of UniProt P23975 (P23975 whole entry): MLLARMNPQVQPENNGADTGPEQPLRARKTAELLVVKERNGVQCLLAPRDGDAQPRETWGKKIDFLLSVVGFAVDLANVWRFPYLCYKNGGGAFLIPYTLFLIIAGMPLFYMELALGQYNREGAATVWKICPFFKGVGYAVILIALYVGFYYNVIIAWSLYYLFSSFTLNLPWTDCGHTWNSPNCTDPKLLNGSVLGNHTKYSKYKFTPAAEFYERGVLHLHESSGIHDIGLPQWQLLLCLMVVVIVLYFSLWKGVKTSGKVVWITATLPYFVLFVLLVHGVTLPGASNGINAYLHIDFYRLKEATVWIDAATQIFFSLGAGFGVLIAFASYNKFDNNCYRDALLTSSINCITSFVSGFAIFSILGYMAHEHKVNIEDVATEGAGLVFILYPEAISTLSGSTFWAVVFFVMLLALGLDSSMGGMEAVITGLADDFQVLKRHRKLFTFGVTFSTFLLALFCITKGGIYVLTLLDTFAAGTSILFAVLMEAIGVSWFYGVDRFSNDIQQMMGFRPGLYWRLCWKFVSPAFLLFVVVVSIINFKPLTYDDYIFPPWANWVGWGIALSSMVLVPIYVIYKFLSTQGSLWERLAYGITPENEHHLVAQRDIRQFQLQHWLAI
Source text: as §1, §2, §3, §4, §5

[12] = target: DOPAMINE D2 RECEPTOR (short) (Homo sapiens, UniProt P14416); experiment: Safety off-target panel, binding; details: single point
Sequence of DOPAMINE D2 RECEPTOR (short) (P14416 1-414 isoform P14416-2): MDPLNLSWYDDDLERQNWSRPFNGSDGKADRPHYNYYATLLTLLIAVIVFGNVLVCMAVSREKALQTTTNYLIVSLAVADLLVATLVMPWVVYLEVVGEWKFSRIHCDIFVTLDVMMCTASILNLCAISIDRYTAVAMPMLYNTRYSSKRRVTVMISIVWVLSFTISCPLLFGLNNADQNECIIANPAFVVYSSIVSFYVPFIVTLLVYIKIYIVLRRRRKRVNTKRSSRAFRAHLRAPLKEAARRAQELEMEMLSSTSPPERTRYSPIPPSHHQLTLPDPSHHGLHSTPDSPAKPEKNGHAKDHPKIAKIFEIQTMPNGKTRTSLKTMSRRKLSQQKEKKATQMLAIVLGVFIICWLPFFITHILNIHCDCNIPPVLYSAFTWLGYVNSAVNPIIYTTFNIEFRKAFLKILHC
Source text: as §1, §2, §3, §4, §5

[13] = target: NICOTINIC RECEPTOR, MUSCLE (Homo sapiens, UniProt P02708+P07510+P11230+Q07001); experiment: Safety off-target panel, binding; details: single point
Source text: as §1, §2, §3, §4, §5

[14] = target: ADENOSINE A3 RECEPTOR (Homo sapiens, UniProt P0DMS8); experiment: Safety off-target panel, binding; details: single point
Sequence of ADENOSINE A3 RECEPTOR (P0DMS8 whole entry): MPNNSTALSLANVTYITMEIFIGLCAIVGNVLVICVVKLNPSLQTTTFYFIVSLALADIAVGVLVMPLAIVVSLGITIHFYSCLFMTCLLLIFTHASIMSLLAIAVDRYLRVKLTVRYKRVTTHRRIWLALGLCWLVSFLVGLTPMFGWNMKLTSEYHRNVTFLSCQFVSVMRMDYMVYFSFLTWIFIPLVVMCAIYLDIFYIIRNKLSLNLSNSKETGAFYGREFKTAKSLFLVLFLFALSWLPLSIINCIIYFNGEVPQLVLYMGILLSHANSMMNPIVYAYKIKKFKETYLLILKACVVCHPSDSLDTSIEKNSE
Source text: as §1, §2, §3, §4, §5

[15] = target: alpha1A-ADRENOCEPTOR (Homo sapiens, UniProt P35348); experiment: Safety off-target panel, binding; details: single point
Source text: as §1, §2, §3, §4, §5

[16] = target: MUSCARINIC RECEPTOR M1 (Homo sapiens, UniProt P11229); experiment: Safety off-target panel, binding; details: single point
Sequence of MUSCARINIC RECEPTOR M1 (P11229 whole entry): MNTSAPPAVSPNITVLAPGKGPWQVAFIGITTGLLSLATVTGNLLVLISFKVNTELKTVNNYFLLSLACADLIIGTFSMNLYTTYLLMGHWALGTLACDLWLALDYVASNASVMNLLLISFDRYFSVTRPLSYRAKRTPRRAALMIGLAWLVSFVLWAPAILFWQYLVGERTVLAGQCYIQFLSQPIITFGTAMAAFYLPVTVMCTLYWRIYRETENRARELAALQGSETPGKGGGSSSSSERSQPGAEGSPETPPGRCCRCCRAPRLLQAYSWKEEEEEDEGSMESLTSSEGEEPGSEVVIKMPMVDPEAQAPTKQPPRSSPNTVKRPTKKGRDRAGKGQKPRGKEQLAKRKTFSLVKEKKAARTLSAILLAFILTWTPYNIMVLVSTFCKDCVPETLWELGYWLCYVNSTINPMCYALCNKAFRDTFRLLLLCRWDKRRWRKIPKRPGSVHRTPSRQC
Source text: as §1, §2, §3, §4, §5

[17] = target: PPARγ (Homo sapiens, UniProt P37231); experiment: Safety off-target panel, binding; details: single point
Sequence of PPARγ (P37231 whole entry): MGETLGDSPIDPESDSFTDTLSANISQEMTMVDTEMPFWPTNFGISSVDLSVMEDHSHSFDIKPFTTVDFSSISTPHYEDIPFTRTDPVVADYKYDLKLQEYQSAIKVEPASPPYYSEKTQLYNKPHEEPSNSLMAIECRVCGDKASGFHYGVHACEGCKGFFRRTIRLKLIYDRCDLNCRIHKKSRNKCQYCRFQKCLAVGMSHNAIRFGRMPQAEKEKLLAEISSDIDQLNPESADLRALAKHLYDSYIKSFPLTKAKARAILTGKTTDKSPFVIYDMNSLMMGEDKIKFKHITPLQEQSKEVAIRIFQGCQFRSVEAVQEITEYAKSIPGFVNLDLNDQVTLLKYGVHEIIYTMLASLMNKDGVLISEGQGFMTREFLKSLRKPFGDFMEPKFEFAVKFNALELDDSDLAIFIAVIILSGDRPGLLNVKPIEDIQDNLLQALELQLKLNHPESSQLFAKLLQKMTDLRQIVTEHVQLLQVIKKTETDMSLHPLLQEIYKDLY
Source text: as §1, §2, §3, §4, §5

[18] = target: PROSTAGLANDIN F RECEPTOR (Homo sapiens, UniProt P43088); experiment: Safety off-target panel, binding; details: single point
Source text: as §1, §2, §3, §4, §5

[19] = target: GLUCOCORTICOID RECEPTOR (Homo sapiens, UniProt P04150); experiment: Safety off-target panel, binding; details: single point
Source text: as §1, §2, §3, §4, §5

[20] = target: β1-ADRENOCEPTOR (Homo sapiens, UniProt P08588); experiment: Safety off-target panel, binding; details: single point
Sequence of UniProt P08588 (P08588 whole entry): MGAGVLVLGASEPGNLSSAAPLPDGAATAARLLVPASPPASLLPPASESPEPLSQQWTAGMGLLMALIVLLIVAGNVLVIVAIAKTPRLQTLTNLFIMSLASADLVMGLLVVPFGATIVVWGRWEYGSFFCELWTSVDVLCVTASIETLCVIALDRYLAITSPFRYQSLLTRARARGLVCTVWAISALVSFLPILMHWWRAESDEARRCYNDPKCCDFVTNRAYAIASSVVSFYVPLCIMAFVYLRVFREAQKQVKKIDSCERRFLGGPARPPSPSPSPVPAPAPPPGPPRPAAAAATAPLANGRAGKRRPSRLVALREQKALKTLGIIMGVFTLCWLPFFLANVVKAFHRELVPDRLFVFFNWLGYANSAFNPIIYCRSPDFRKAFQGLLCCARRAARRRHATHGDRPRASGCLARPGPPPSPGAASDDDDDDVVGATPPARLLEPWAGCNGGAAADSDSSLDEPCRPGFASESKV
Source text: as §1, §2, §3, §4, §5

[21] = target: ANDROGEN RECEPTOR (Homo sapiens, UniProt P10275); experiment: Safety off-target panel, binding; details: single point
Source text: as §1, §2, §3, §4, §5

[22] = target: 5HT3 (Homo sapiens, UniProt P46098); experiment: Safety off-target panel, binding; details: single point
Sequence of 5HT3 (P46098 24-478): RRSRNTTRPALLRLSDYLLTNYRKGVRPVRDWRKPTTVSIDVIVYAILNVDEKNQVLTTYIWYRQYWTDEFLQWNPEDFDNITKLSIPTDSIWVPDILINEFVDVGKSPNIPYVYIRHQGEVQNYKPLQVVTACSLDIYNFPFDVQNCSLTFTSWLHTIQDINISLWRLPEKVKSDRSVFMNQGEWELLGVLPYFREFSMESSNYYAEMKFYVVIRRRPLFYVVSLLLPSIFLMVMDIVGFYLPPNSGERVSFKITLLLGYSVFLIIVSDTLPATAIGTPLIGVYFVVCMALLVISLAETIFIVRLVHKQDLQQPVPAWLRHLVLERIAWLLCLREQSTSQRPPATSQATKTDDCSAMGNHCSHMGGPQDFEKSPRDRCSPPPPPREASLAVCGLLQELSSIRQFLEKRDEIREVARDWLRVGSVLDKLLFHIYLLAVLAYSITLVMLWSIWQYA
Source text: as §1, §2, §3, §4, §5

[23] = tested on: P-glycoprotein (Pgp); experiment: P-glycoprotein (Pgp) efflux assay; type: in vitro ADME; details: mouse; for Papp: PAMPA, read-out: PgP Transport mouse permeability; for efflux ratio: not told, read-out: PgP Transport mouse apical efflux ratio
Procedure: Compounds 1–3 were characterized in a hybrid reporter gene assay for their agoniztic effect on human nuclear receptors PPARα/γ/δ, RXRα, FXRα, RARα in HEK293T cells. Compound 1 was tested in an isothermal titration calorimetry (ITC) assay to measure direct binding affinity to the ligand-binding domain of PPARγ. ADME properties were measured in standardized assays at Roche.
SI11Absorption Distribution Metabolism and Excretion and Toxicity Data
To assess the drug-like characteristics of the newly designed PPAR modulators, a series of tests were conducted covering various aspects of absorption, distribution, metabolism, and excretion (ADME) properties. Specifically, these assessments included the parallel artificial membrane permeability assay (PAMPA) with permeation co- […]
efficients ([…]), LogD measurements, microsomal clearance, hepatocyte clearance, P-glycoprotein (Pgp) efflux ratio and binding and the unbound free fraction. […]
Table S14: Absorption distribution metabolism and excretion (ADME) properties of compounds 1 and 2. The […]
values for […], LogD, protein binding, P-glycoprotein (Pgp) efflux ratio and permeability, and hepato-cyte clearance are presented as the mean and standard deviation, with a sample size of N = 3, i.e., 3 technical replicates each. The values for microsomal clearance and CYP-inhibition represent single point measurements. […]
PgP Transport mouse apical efflux ratio - 1.6 1.2
PgP Transport mouse permeability (nm·sec−1) - 15 60 […]

[24] = tested on: HEK293T cells; experiment: Cytotoxicity assay on HEK293T cells (Celltiter-glo); type: cell-based, human; details: 16 h and 24 h, 0.05–20 μM, range of cell numbers, result in words
Procedure: HEK293T cells were seeded at the indicated number per well in DMEM-high glucose, complemented with glutamax, pen-strep, and 10% FBS, in a total of 40 μl of medium. The cells were incubated overnight at 37 °C. Compounds were added to the cells at the indicated concentrations, resulting in a final Dimethylsulfoxid (DMSO) concentration of 0.2%. The compounds were incubated on the cells for either 16 h or 24 h. At the specified time point, the medium was carefully removed from the vessel, leaving only 2 μl in the wells. Celltiter-glo (CTG) reagent (G7572, Promega) was prepared according to the manufacturer’s instructions. Plates with cells were equilibrated at room temperature for 30 min. Subsequently, 25 μl of CTG reagent was added to the cells. The plates were then shaken for 2 min and incubated for an additional 15 min at room temperature. Luminescence was read afterward with BG Pherastar.

[25] = tested on: NICOTINIC RECEPTOR, NEURONAL (α-BGTX insens.); experiment: Safety off-target panel, binding; set-up: species or system Human; details: 10 µM, single point
Source text: as §1, §2, §3, §4, §5

Sequence of HISTAMINE H3 RECEPTOR (Q9Y5N1 whole entry): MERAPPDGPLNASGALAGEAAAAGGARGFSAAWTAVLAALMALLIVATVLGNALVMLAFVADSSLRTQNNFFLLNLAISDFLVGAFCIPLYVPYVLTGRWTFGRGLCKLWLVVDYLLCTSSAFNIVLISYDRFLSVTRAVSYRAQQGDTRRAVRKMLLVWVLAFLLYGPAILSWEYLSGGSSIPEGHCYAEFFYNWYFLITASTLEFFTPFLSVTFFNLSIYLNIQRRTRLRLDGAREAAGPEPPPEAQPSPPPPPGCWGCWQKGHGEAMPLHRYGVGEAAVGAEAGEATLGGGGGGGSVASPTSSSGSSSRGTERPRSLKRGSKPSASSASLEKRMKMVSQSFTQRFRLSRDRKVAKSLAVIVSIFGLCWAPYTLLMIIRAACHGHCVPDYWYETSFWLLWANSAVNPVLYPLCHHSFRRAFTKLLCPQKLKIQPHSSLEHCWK

SMILES	inhibition at 10 µM [1] [%]	inhibition at 10 µM [2] [%]	inhibition at 10 µM [3] [%]	inhibition at 10 µM [4] [%]	inhibition at 10 µM [5] [%]	inhibition at 10 µM [6] [%]	inhibition at 10 µM [7] [%]	inhibition at 10 µM [8] [%]	inhibition at 10 µM [9] [%]	inhibition at 10 µM [10] [%]	inhibition at 10 µM [11] [%]	inhibition at 10 µM [12] [%]	inhibition at 10 µM [13] [%]	inhibition at 10 µM [14] [%]	inhibition at 10 µM [15] [%]	inhibition at 10 µM [16] [%]	inhibition at 10 µM [17] [%]	inhibition at 10 µM [18] [%]	inhibition at 10 µM [19] [%]	inhibition at 10 µM [20] [%]	also measured
COc1ccc(Oc2ccc3ncn(CCOc4ccc(CCC(=O)O)cc4)c3c2)cc1 [Compound 2]	2.1	7.1	6.2	6.9	-3.1	-0.7	6.4	7.6	-3.2	-8.3	0.7	-6.8	0.9	17.1	2.9	-0.2	89.6	4.6	-2.1	6.9	inhibition at 10 µM [21]: 3.1%; inhibition at 10 µM [22]: 0.3%; Papp [23]: 6 ×10⁻⁶ cm/s; efflux ratio [23]: 1.2; cytotoxicity on HEK293T cells [24]: did not indicate any cytotoxicity; also recorded: No cytotoxic effects; Mean inhibition (%) [25]: -2.9%
Cc1nnc(-c2ccc(OCCCOc3ccc(CCC(=O)O)c(F)c3)c(F)c2)s1 [Compound 1]	4.9	6.6	-6.9	4.2	10.9	10.9	6.9	1.2	9.3	2.3	-3.3	-1.9	-3.7	9	1.7	8.4	95	0	-3.8	0.7	inhibition at 10 µM [21]: -1.6%; inhibition at 10 µM [22]: -4.7%; Papp [23]: 1.5 ×10⁻⁶ cm/s; efflux ratio [23]: 1.6; cytotoxicity on HEK293T cells [24]: did not indicate any cytotoxicity; also recorded: No cytotoxic effects; Mean inhibition (%) [25]: -6.9%

Source: article PMC11035696, “Prospective de novo drug design with deep interactome learning” (Nature Communications, 2024)
